Experimental data from patent US20260207632A1, “C[…] THERAPY” (KINGDOM THERAPEUTICS LIMITED, priority 2022, published 2026).

Tests used:
[1] = system: rat VPA model of autism; assay: Juvenile social play behaviour (P30) in the in utero valproic acid (VPA) rat model of autism; format: in vivo; design: key to play behaviour: +: improvement; Ø: no change
Protocol: Time-mated female Wistar rats were administered a single dose of valproic acid (VPA, 600 mg/kg, i.p.) on gestational day 12.5 (VPA/VEH). To determine behavioural deficits in the VPA autism model, male offspring were tested at juvenile (postnatal day 30) for the presence of abnormal behaviours associated with autism e.g., decreased sociability and increased irritability.
(§1) In the first study, a sub-chronic 8-day dosing schedule was employed with the test compound CBD administered alone (10, 30 and 60 mg/kg, p.o. VPA/CBD; dose volume 5 ml/kg). Control animals were administered sterile saline (0.9% w/v, i.p.) in utero and the vehicle control (ethanol: Kolliphor HS-15:0.9% saline (1:1:18, v/v/v) p.o. VEH/VEH). The test compound and vehicle control were administered to the animals once daily for 7 days prior to, and once again on each day of behavioural assessment, 60 minutes prior to test which consisted of a battery of behavioural paradigms: P30 social play and bottle brush test, P31-32 open field exploratory behaviour. A reference positive control, the atypical antipsychotic risperidone (0.125 mg/kg, i.p., once per day for 8 days prior to and for duration of behavioural testing), was included in study one for comparison. Subsequent to behavioural analysis the effect of CBD on gastrointestinal permeability was evaluated four hours following oral administration of fluorescein isothiocyanate-labelled dextran measured in plasma on postnatal day 33. On postnatal day 34, 60 minutes post a final treatment with the test agents, animals were humanely euthanised and samples collected to evaluate inflammatory biomarkers, gastrointestinal function and histology. 5 In the second study, the sub-optimal dose of CBD (30 mg/kg, p.o.) was evaluated in combination with administration of THC at increasing concentration (0.75, 1.5 and 3 mg/kg, p.o. VPA/CBD+THC). Comparison was made to CBD administered alone at the sub-optimal and effective doses (30 and 60 mg/kg, p.o.) and to vehicle controls as per study one. Behavioural and gastrointestinal readouts were examined as per study one with terminal samples collected on the final day of the experiment.
Time-mated female Wistar Han Rcc rats (Envigo, UK) were administered a single dose of valproic acid (VPA, Sigma Aldrich, Ireland, lot no. MKCB2699V, 600 mg/kg, i.p.) or vehicle (0.9% saline i.p.) on gestational day 12.5. Confirmation of the VPA induced developmental deficit was rapidly achieved by examination of characteristic “tail kinks” observed in all of the juvenile animals exposed to VPA. Litters were normalised to 8 animals and to male offspring at postnatal day 3. Male pups were cross fostered to make up the uniform litter size of eight. Male offspring were housed as per standard laboratory conditions until time of experimental use. Vehicle-treated control animals were employed as controls, with animals for both parts of the study prepared together. At weaning, animals were allocated into test groups according to a balanced design based on weight and litter to distribute these equally across each treatment group. Animals were introduced to the experimental holding rooms prior to the commencement of the study, housed in groups of 4 during this period in soft bottomed cages with sawdust bedding material, with enrichment consisting of nesting material, cardboard tubes and Perspex internal shelter, and maintained at 22-24° C. on a standard 12-hour light/dark cycle (07.30-19.30), with food and water available ad libitum. All animals were examined and weighed daily during drug treatment and experimental protocols. All procedures were carried out by individuals retaining the appropriate authorisation from the Irish Government Health Products Regulatory Authority. Furthermore, the study protocol was approved by the Animal Research Ethics Committee of University College Dublin, Ireland. […]

[2] = system: rodent in utero VPA model of autism; assay: Behavioural changes in rodent in utero VPA model of autism (overall conclusion); format: in vivo, rat; details: sub-chronic treatment with CBD alone, p.o.
Protocol: as §1, with “A reference positive control, the atypical antipsychotic risperidone (0.125 mg/kg, i.p., once per day for 8 days prior to and for duration of behavioural testing), was included in study one for comparison.” left out, “On postnatal day 34, 60 minutes post a final treatment with the test agents, animals were humanely euthanised and samples collected to evaluate inflammatory biomarkers, gastrointestinal function and histology.” left out, “Comparison was made to CBD administered alone at the sub-optimal and effective doses (30 and 60 mg/kg, p.o.) and to vehicle controls as per study one.” left out
Two experimental studies carried out 1). that established the effective dose of CBD and 2). determined the additive effect of CBD in combination with THC at increasing ratios. […]

[3] = system: rat VPA model of autism; assay: Muscle thickness in rat colonic tissue (H&E histology), VPA rat model; format: in vivo; details: for Average Muscle Thickness: VPA in utero
Protocol: Five animals were chosen at random from each of the agreed treatment groups. Colon tissue was collected after euthanasia, weighted, flushed using cold sterile saline, and divided into three sections. One distal sample (approx. 1 cm×1 cm) was employed for intestinal myeloperoxidase (MPO) activity as described below by Berand Ltd. This sample was weighed and stored at −80° C. until use. A second proximal colon sample (approx. 1 cm×5 cm) was prepared for histological analysis by collection using the Swiss roll technique, placed into a cassette for paraffin embedding and preservation in 10% formalin solution for 24 hours. They were then transferred into 70% ethanol solution until paraffin embedded. These samples were shipped in 70% ethanol solution to Transpharmation Ltd at trinity College Dublin, Ireland for further processing. Haematoxylin & eosin staining was performed on the tissue before imaging. Five images were taken from each animal at 1.25× magnification. Using ImageJ the thickness of the muscle layer was measured at 5 locations throughout the section. A third medial section of colon (approx. 1 cm×2.5 cm) was frozen in liquid nitrogen for the analysis of cytokine expression and was shipped at minus 80° C. to Transpharmation Ltd at Trinity College Dublin, Ireland.
Staining was performed using the Haematoxylin and Eosin kit from Vector Laboratories (Cat. No. H-3502). Sections were deparaffinized and rehydrated by washing in xylene (3×5 min), 100% ethanol (1 min), 96% ethanol (1 min) and distilled water (2 min). Each section was fully covered in haematoxylin stain and left for 5 min before being washed twice in distilled water for 15 s. […]
Sections were imaged using an Olympus BX51 microscope at a magnification of 1.25×. Images were then analysed using ImageJ software. Thickness of muscle were measured from luminal surface to muscularis mucosa and from luminal surface to external muscle layer. […]
For the histological analysis of colonic tissue, statistical analysis was performed using GraphPad Prism 9. Normality was assessed using the Shapiro-Wilk test. […]

[4] = study one, risperidone 0.125 mg/kg
[5] = study one, CBD 60 mg/kg, vs VPA/VEH

Cc1nc2n(c(=O)c1CCN1CCC(c3noc4cc(F)ccc34)CC1)CCCC2 [Risperidone, risperidone]
play behaviour ([1]; cohort one, risperidone 0.125 mg/kg i.p.): Ø
any other measure of play or social interaction in juvenile animals ([1]; risperidone 0.125 mg/kg): without effect
Mount Duration (sec) [1, 4]: X (X = no effect)
Mount Frequency [1, 4]: X (X = no effect)
Social Play Duration (sec) [1, 4]: X (X = no effect)
Social Play Frequency [1, 4]: X (X = no effect)
Social Play Latency (sec) [1, 4]: X (X = no effect)

C=C(C)[C@@H]1CCC(C)=C[C@H]1c1c(O)cc(CCCCC)cc1O [CBD, cannabidiol]
play behaviour ([1]; cohort one, CBD 10 mg/kg p.o.): Ø
play behaviour ([1]; cohort one, CBD 30 mg/kg p.o.): Ø
play behaviour ([1]; cohort one, CBD 60 mg/kg p.o.): +
play behaviour ([1]; cohort two, CBD 30 mg/kg, THC 0 mg/kg p.o.): Ø
play behaviour ([1]; cohort two, CBD 60 mg/kg, THC 0 mg/kg p.o.): +
Mount Duration (sec) ([1]; study one, CBD 10 mg/kg): X (X = no effect)
Mount Frequency ([1]; study one, CBD 10 mg/kg): X (X = no effect)
Social Play Duration (sec) ([1]; study one, CBD 10 mg/kg): X (X = no effect)
Social Play Frequency ([1]; study one, CBD 10 mg/kg): X (X = no effect)
Social Play Latency (sec) ([1]; study one, CBD 10 mg/kg): X (X = no effect)
latency to engage in mounting play behaviour (delay) ([1]; study one, CBD 10 mg/kg, vs VPA/VEH): significantly attenuated
Mount Duration (sec) ([1]; study one, CBD 30 mg/kg): X (X = no effect)
Mount Frequency ([1]; study one, CBD 30 mg/kg): X (X = no effect)
Social Play Duration (sec) ([1]; study one, CBD 30 mg/kg): X (X = no effect)
Social Play Frequency ([1]; study one, CBD 30 mg/kg): X (X = no effect)
Social Play Latency (sec) ([1]; study one, CBD 30 mg/kg): X (X = no effect)
latency to engage in mounting play behaviour (delay) ([1]; study one, CBD 30 mg/kg, vs VPA/VEH): significantly attenuated
Social Play Frequency ([1]; study one, CBD 60 mg/kg): X (X = no effect)
Social Play Latency (sec) ([1]; study one, CBD 60 mg/kg): X (X = no effect)
decrease in duration of mounting behaviour [1, 5]: reversed
decrease in frequency of mounting behaviour [1, 5]: ameliorated
latency to engage in mounting play behaviour (delay) [1, 5]: significantly attenuated
reduction in social play duration [1, 5]: significantly attenuated
reduction in social play duration ([1]; study two, CBD 30 mg/kg): without effect
decrease in duration of mounting behaviour ([1]; study two, CBD 60 mg/kg): reversed
reduction in social play duration ([1]; study two, CBD 60 mg/kg, vs VPA/VEH): significantly attenuated
Mount Duration (sec) ([1]; study two, CBD alone 30 mg/kg): X (X = no effect)
Mount Frequency ([1]; study two, CBD alone 30 mg/kg): X (X = no effect)
Mount Latency (sec) ([1]; study two, CBD alone 30 mg/kg): X (X = no effect)
Social Play Duration (sec) ([1]; study two, CBD alone 30 mg/kg): X (X = no effect)
Social Play Frequency ([1]; study two, CBD alone 30 mg/kg): X (X = no effect)
Social Play Latency (sec) ([1]; study two, CBD alone 30 mg/kg): X (X = no effect)
Mount Frequency ([1]; study two, CBD alone 60 mg/kg): X (X = no effect)
Mount Latency (sec) ([1]; study two, CBD alone 60 mg/kg): X (X = no effect)
Social Play Frequency ([1]; study two, CBD alone 60 mg/kg): X (X = no effect)
Social Play Latency (sec) ([1]; study two, CBD alone 60 mg/kg): X (X = no effect)
minimum effective dose [2]: 60 mg/kg
Average Muscle Thickness ([3]; CBD 30 mg/kg): 220.4 μm
Average Muscle Thickness ([3]; CBD 60 mg/kg): 207.2 μm
thinning of colonic muscle ([3]; VPA rats, treatment with CBD (30, 60 mg/kg)): attenuated
